Target: T1, TG2 (Mus musculus, UniProt P21981)
T1 construct: host or cells: mice (in vivo)
T1 sequence (P21981 1-686): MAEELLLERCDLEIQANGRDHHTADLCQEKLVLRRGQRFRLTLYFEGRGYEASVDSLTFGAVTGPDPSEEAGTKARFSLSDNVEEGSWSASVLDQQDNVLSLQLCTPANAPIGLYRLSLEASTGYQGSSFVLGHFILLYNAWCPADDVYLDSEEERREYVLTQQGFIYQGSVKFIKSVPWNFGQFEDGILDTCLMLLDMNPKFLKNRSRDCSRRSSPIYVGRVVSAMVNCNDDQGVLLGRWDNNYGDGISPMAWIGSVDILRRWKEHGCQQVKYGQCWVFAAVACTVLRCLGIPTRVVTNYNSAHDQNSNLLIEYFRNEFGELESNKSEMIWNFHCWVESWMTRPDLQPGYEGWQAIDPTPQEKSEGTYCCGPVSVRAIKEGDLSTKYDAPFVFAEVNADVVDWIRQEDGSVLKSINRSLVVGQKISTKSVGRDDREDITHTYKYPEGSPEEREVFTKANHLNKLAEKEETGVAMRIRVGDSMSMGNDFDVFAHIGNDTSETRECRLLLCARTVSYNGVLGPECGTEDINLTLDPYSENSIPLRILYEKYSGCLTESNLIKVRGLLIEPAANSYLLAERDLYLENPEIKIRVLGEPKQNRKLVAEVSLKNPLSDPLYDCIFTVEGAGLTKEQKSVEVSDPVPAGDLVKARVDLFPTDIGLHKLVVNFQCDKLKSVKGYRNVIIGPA
Experiment: TG2 activity (5-BP probe) in tissues of LPS-induced septic mice
Format: in vivo
Conditions: septic mice (LPS 5 mg/kg iv); 50 mg/kg intraperitoneally
Method: FIG. 2: TG2 is active in septic mice and can be inhibited by the intraperitoneal administration of 50 mg/kg CK996: Panels (A) through (C) depict tissues from the liver, lung and small intestine from septic male BL6 mice that were stained for TG2 protein (top row) or TG2 activity (middle row). The bottom row depicts the merged images from the TG2 protein and activity channel, respectively. Tissues from mice that had received the TG2 inhibitor CK996 are shown in the right set of images in each panel whereas tissues from control mice that received vehicle only are shown in the left set of images. Panel (D) quantifies the ratio of TG2 activity to TG2 protein signal intensity. All mice in this study received lipopolysaccharide (LPS, 5 mg/kg i.v., at t=0) and the TG2 activity-based probe 5-biotinamidopentylamine (5-BP, 100 mg/kg i.p., at t=0 and 90 min)(Dafik et al., 2012; Siegel et al., 2008). One cohort of mice additionally received an intraperitoneal dose of the TG2 inhibitor CK996 (50 mg/kg i.p., at t=0 and 60 min) in vehicle (PBS with 10% DMSO and 2% 2,6-di-(OMe)-beta-cyclodextrin), whereas the control mice received the vehicle alone. At 3 hours the mice were euthanized, tissues collected and frozen in OCT medium and then TG2 protein and activity (5-BP) stained, imaged and quantified as described in the literature (Diraimondo et al., 2013 ACS Chem. Biol.). […]

## O=C(N[C@@H]1C[C@@H](C(=O)NC[C@@H]2CC(Br)=NO2)N(C(=O)OCc2cnc3ccccc3c2)C1)c1cccnc1 [Compound 5, (2S,4R)-quinolin-3-ylmethyl 2-((((S)-3-bromo-4,5-dihydroisoxazol-5-yl)methyl)carbamoyl)-4-(nicotinamido)pyrrolidine-1-carboxylate]
  TG2 activity in intestines, livers and lungs: fully suppressed
